The numbers were not newly measured in patent US12648920B2, “Methods of administering glutathione precursors” (Neuronasal, Inc., priority 2020, dated 2026), which cites them from elsewhere.

The conditions of the data set: oral.

Consider `CC(=O)N[C@@H](CS)C(=O)O` [NAC, N-acetylcysteine], for which the orally bioavailable is listed as under 10%.
